According to patent US10456441B2, “Augmenting the immune response by promoting cell death of immune cells” (The University of Vermont and State Agricultural College, priority 2014, dated 2019):
Where a SMILES comes first, the peptide text is derived from it. The star is where a group is joined. Cbz = O=C(OCc1ccccc1)*; CH2F = FC*

How the values were obtained:
[1] = system: human synovial Vδ1 clone Bb15; assay: Human synovial γδ T cell clone Bb15 cultured with human DC and B. burgdorferi; type: cell-based; details: Borrelia plus zVAD-treated (50 μM) DC cultured with GM-CSF alone
Description: γδ T cell clones were derived from synovial fluid T cells stimulated with B. burgdorferi sonicate (10 μg/ml) and then cloned at limiting dilution as previously described (8). All clones are of the Vδ1 subset by antibody staining and DNA sequencing (8). Clones were restimulated every 10-14 days in the presence of irradiated peripheral blood lymphocytes (3×10^5/well), human recombinant IL-2 (10 U/ml), and 10 μg/ml of B. burgdorferi.
Human monocytes were obtained as […] cells by magnetic bead purification (Miltenyi Biotech, Auburn, Calif.) from peripheral blood of healthy volunteers. Myeloid DC were prepared by culture of monocytes in AIM V media plus 10% fetal calf serum (HyClone) with 800 U/ml of granulocyte-macrophage colony-stimulating factor (GM-CSF), (BioLegend, San Diego, Calif.) without or with 500 U/ml IL-4 (BioLegend).

[2] = system: BMDC; assay: Cytokine production by Borrelia-stimulated BMDC (Bio-Plex); type: cell-based, mice; details: zVAD, 20 h
Description: The preparation of bone marrow-derived dendritic cells (BMDC) was done according to the method of Lutz et al. (26) using GM-CSF ([…] PeproTech, Rocky Hill N.J.) or GM-CSF plus IL-4 (10 μg/ml, PeproTech). Cells were used on day 7.
Day 7 γδ T cells and BMDC were cultured either individually or together at a 1:1 ratio (10^6 cells/ml each). To some cultures the following reagents were added: a sonicate of Borrelia burgdorferi (10 μg/ml), zVAD-fmk (MP Biomedical, Santa Ana Calif.) at the doses indicated, necrostatin (50 μM, R&D Systems, Minneapolis, Minn.), anti-TNF-α (10 μg/ml, Calbiochem, Darnstadt, Germany),, anti-IL-1 Receptor antagonist, Anakinra (200 ng/ml, Amgen, Thousand Oaks, Calif.), anti-IL-12 (10 μg/ml, BioLegend San Diego, Calif.), anti-IL-18 (10 μg/ml, MBL, Woburn Mass.), or rat IgG (10 μg/ml Jackson Immunoresearch, West Grove Pa.). Transwell assays were performed using 1×10^6 γδ T cells in 1 ml of complete medium+IL-2 placed in the lower chamber, with 5×10^5 DC in 100 μl placed in the upper chamber. […]
Cytokine levels of IFN-γ, IL-1β, IL-12p40, IL-12p70, IL-17, and TNF-α were detected using the Bio-Plex, MilliPlex, or Luminex immunoassay (Bio-Rad; Millipore-EMD; R&D Systems, Minneapolis, Minn.) according to the manufacturer's protocol. Briefly, samples were run undiluted or diluted 1:10 in RPMI complete media. 50 μl of the magnetic bead working solution was added to each well, then 50 μl of appropriate samples or standards were then added to wells and incubated at room temperature for 30-120 min at 800 rpm on an IKA MS 3 digital shaker. After three washes with 100 μl Bio-Plex wash buffer, incubation with 25 μl of detection antibody solution was done at room temperature for 30-60 min on the shaker. Following another set of three washes, 50 μl of streptavidin-phycoerythrin (PE) in assay buffer was added to each well and incubated as described for the previous step. After an additional three washes, 125 μl of assay buffer was added. Sample data was analyzed with Bio-Plex Manager software.

[3] = system: CD4 OT-II T cells; assay: OT-II αβ T cell cultures with DC and OVAp; type: cell-based, mice; details: OVAp + DC treated with zVAD (50 μM)
Description: C57BL/6 OT-II mice contain CD4^+ T cells that respond to ovalbumin peptide (OVAp) 323-339 in the context of I-A^b (27). OT-II T cells were cultured with C57BL/6 DC at a 1:1 ratio in the presence of OVAp (10 μg/ml) with or without zVAD (50 μM). Supernatants were collected after 20 h and analyzed for production of IFN-γ and IL-17 by Bio-Plex.

[4] = system: human DC; assay: Cell death of human DC from peripheral blood monocytes; type: cell-based; details: human DC cultured with GM-CSF, zVAD at doses very similar to murine DC, 20 h
Description: Human monocytes were obtained as […] cells by magnetic bead purification (Miltenyi Biotech, Auburn, Calif.) from peripheral blood of healthy volunteers. Myeloid DC were prepared by culture of monocytes in AIM V media plus 10% fetal calf serum (HyClone) with 800 U/ml of granulocyte-macrophage colony-stimulating factor (GM-CSF), (BioLegend, San Diego, Calif.) without or with 500 U/ml IL-4 (BioLegend). Cell death was examined by terminal deoxynucleotidyl transferase dUTP nick end labeling (TUNEL). Briefly, cells were stained for expression of cell surface molecules, and then fixed with 1% methanol-free formaldehyde followed by 70% ethanol. After washing, the TUNEL reaction was performed by incubating cells in 50 μl of reaction mix containing 10 units of terminal deoxribosyl transferase (TdT), 2.5 mM cobalt chloride in 1× TdT buffer, and 0.2 pmol/μl of FITC-dUTP (Roche, Indianapolis, Ind.) at 37° C. for 1 hour. The cells were washed twice and fixed in 1% methanol-free formaldehyde. Murine thymocytes were included as a positive control for apoptotic cells. Flow cytometry was performed on an LSRII (BD Biosciences, San Jose, Calif.) calibrated with compensation beads (BD Biosciences). Analysis was performed using FlowJo software (Tree Star, Inc., Ashland, Oreg.).

[5] = system: RIPK1; assay: RIPK1 cleavage in BMDC by immunoblot; type: cell-based, mice
Description: Day 7 BMDC were lysed in Tris-buffer containing Complete Protease Inhibitor (Roche), 0.2% NP-40 (Roche), and biotin-VAD-fmk (10 μM, MP Biomedicals, Santa Ana, Calif.). Insoluble cell fragments were removed by centrifugation, and the protein concentration of the resulting whole cell lysates was determined by Bradford assay (BioRad, Hercules, Calif.). Whole cell lysates (30 μg per lane) were separated by SDS-PAGE. Precipitation of active caspases was performed by rocking 600 μg of whole cell lysates initially with sepharose 4B beads (Sigma) at 4° C. for 2 hours to remove nonspecific binding of proteins to the beads, followed by overnight rocking incubation with streptavidin-conjugated sepharose beads (Invitrogen) at 4° C. Release of biotin-VAD-fmk-labeled caspases from the streptavidin beads was achieved by heating to 95° C. for 10 min in Laemmli buffer. After gel electrophoresis, proteins were transferred to PVDF membranes (0.2 μm pore size, Bio-Rad), and immunoblots were performed using antibodies (1 μg/ml) against caspase-3, caspase-8 (both Cell Signaling, Danvers, Mass.), caspase-9 (Stressgen, Farmingdale, N.Y.), and RIPK1 (BD Biosciences).

CC(C)[C@H](NC(=O)OCc1ccccc1)C(=O)N[C@@H](C)C(=O)N[C@@H](CC(=O)O)C(=O)CF [zVAD, N-benzyloxycarbonyl-Val-Ala-Asp-fluoromethyl ketone] (Cbz-Val-Ala-Asp-CH2F)
IFN-γ production by clone Bb15 [1]: increased IFN-γ production
BMDC production of IL-1β [2]: completely inhibited
BMDC production of TNF-α [2]: augmented
production of IL-12 p40 by BMDC [2]: partially inhibited
production of IL-12 p70 by BMDC [2]: partially inhibited
production of IFN-γ by OT-II T cells [3]: considerably augmented
production of IL-17 by OT-II T cells [3]: considerably augmented
death of human DC [4]: highly susceptible to death
cleavage of RIPK1 ([5]; BMDC cultured with GM-CSF only, zVAD): completely inhibited cleavage
cleavage of RIPK1 ([5]; BMDC cultured with GM-CSF+IL-4, zVAD): only partially inhibited
